Reference: paper PMC9914633 (International Journal of Environmental Research and Public …, 2023)

Target: T1, xoSNAT1 (Xanthomonas oryzae, UniProt A0ACG7R854)
T1 construct: gene DZA53_20490
Conditions: serotonin 0.5 mM; acetyl-CoA 0.5 mM; 100 mM potassium phosphate pH 8.8; 35 °C

Compound: NCCc1c[nH]c2ccc(O)cc12 [serotonin]
- LC-MS/MS of serotonin and product: GST and xoSNAT2 have no SNAT activity, while xoSNAT1 showed only low activity
